Marks after values point to notes of the source that are not given here.
Columns and labels:
[1] = test system: isolated renal cortical cells (IRCC); assay: Effect of antioxidant or biotransformation inhibitor pretreatment on TCNB cytotoxicity, LDH release in IRCC; settings: for Effect of pretreatment on 3,4,5-TCNB cytotoxicity: 0.5 mM 3,4,5-TCNB, 30 min exposure; for Effect of pretreatment on 3,4,5-TCNB cytotoxicity / Effect of pretreatment on 2,3,4-TCNB cytotoxicity / Effect of pretreatment on 2,4,6-TCNB cytotoxicity / Effect of pretreatment on 2,4,5-TCNB cytotoxicity: IRCC; for Effect of pretreatment on 2,3,4-TCNB cytotoxicity: 1.0 mM 2,3,4-TCNB, 60 min exposure; for % of lactate dehydrogenase release, PreTx: pretreatment compound alone, no TCNB; for % of lactate dehydrogenase release, PreTx / % of lactate dehydrogenase release, PreTx + TCNB: mean ± S.E., n = 4; for Effect of pretreatment on 2,4,6-TCNB cytotoxicity: 1.0 mM 2,4,6-TCNB; for Effect of pretreatment on 2,4,6-TCNB cytotoxicity / Effect of pretreatment on 2,4,5-TCNB cytotoxicity: 90 min exposure; for Effect of pretreatment on 2,4,5-TCNB cytotoxicity: 1.0 mM 2,4,5-TCNB
Method: Untreated rats were anesthetized with pentobarbital (75 mg/kg, i.p.) and isolated renal cortical cells (IRCC) were obtained by using the collagenase perfusion method. Initial cell viability was determined by measuring trypan blue (2% w/v) exclusion and lactate dehydrogenase (LDH) release. […] IRCC were then exposed to various concentrations of a TCNB (0, 0.5, or 1.0 mM) for 15, 30, 60, 90, or 120 min. Following the incubation period, flasks were removed and placed on ice. Samples (0.5 mL) were taken for LDH release assays. Briefly, the samples were centrifuged (3000× g, 3 min), the was supernatant decanted and saved, and the pellet was disrupted with 1 mL of 10% Triton X-100 solution to release cellular LDH activity. LDH activity was then determined in each fraction (supernatant and pellet) as previously described using a kinetic assay based on the amount of NADH produced from NAD [57]. The LDH released was expressed as % of total (supernatant plus pellet).
Concentrations used in these experiments were 0.5 mM (3,4,5-TCNB) or 1.0 mM (2,3,4-, 2,4,5- and 2,4,6-TCNB). Incubation times with a TCNB added were 30 min (3,4,5-TCNB), 60 min (2,3,4-TCNB), or 90 min (2,4,5- and 2,4,6-TCNB). The pretreatment times and concentrations for all of the pretreatments are shown below in Table 5.

renal cortical slices = settings: cited from earlier work
[2] = test system: isolated renal cortical cells (IRCC); assay: Time and concentration cytotoxicity study, LDH release in IRCC; format: cell-based, male Fischer 344 rats; settings: for Cytotoxicity (LDH release), time and concentration response: 0.5 or 1.0 mM, 15-120 min, significant difference from DMSO control, p < 0.05
Method: To determine the comparative nephrotoxic potential of the four TCNBs in IRCC, a time and concentration response study was performed starting at 15 min and 0.5 or 1.0 mM and adjusting the times tested based on the results (Figure 2).

[3] = Table 1 experiments, 60 min incubation
[4] = Table 2 experiments, 90 min incubation
[5] = Table 3 experiments, 90 min incubation
[6] = pretreatment compound followed by 1.0 mM 2,3,4-TCNB, 60 min
[7] = pretreatment compound followed by 1.0 mM 2,4,5-TCNB, 90 min
[8] = pretreatment compound followed by 1.0 mM 2,4,6-TCNB, 90 min

Row | SMILES | Effect of pretreatment on 3,4,5-TCNB cytotoxicity [1] | Effect of pretreatment on 2,3,4-TCNB cytotoxicity [1] | % of lactate dehydrogenase release, PreTx [1, 3] | % of lactate dehydrogenase release, PreTx [1, 4] | % of lactate dehydrogenase release, PreTx [1, 5] | % of lactate dehydrogenase release, PreTx + TCNB [1, 6] | % of lactate dehydrogenase release, PreTx + TCNB [1, 7] | % of lactate dehydrogenase release, PreTx + TCNB [1, 8] | Lowest concentration reducing pyruvate-stimulated gluconeogenesis and increasing LDH release (renal cortical slices) [mM] | Cytotoxicity (LDH release), time and concentration response [2] | Effect of pretreatment on 2,4,6-TCNB cytotoxicity [1] | Effect of pretreatment on 2,4,5-TCNB cytotoxicity [1] | Concentration at which cytotoxicity was evident ([2]; as early as 30 min) [µM]
1 | O=C(O)CC(S)C(=O)O (stereo not drawn) [Mercaptosuccinate] | reduced | reduced | 10 ± 1% | 17 ± 1 ^c % | 16 ± 1% | 10 ± 1 ^d % | 24 ± 1 ^c % | 31 ± 1 ^c % |  |  |  |  | 
2 | Nc1ccc(S(=O)(=O)Nc2ccnn2-c2ccccc2)cc1 [sulfaphenazole, Sulfaphenazole] | at least some attenuation |  |  |  |  |  |  |  |  |  |  |  | 
3 | O=[N+]([O-])c1ccc(Cl)c(Cl)c1 [3,4-DCNB, 3,4-dichloronitrobenzene] |  |  |  |  |  |  |  |  | 0.5 |  |  |  | 
4 | O=[N+]([O-])c1cc(Cl)c(Cl)cc1Cl [2,4,5-TCNB] |  |  |  |  |  |  |  |  |  | induced cytotoxicity at 90 min (0.5 mM) and 120 min (0.5 and 1.0 mM), but not at 60 min with either concentration |  |  | 
5 | S=P(N1CC1)(N1CC1)N1CC1 [thio-tepa, Thio-tepa] | at least some attenuation |  |  |  |  |  |  |  |  |  |  |  | 
6 | CC(C)(C(=O)c1cccnc1)c1cccnc1 [Metyrapone] | reduced |  | 12 ± 1% | 16 ± 1 ^c % | 15 ± 1% | 17 ± 1 ^c % | 28 ± 2 ^c % | 27 ± 2 ^c % |  |  | reduced |  | 
7 | CCCCCCCCN [n-Octylamine, N-Octylamine] | reduced | reduced | 16 ± 1 ^c % | 11 ± 2% | 11 ± 1% | 19 ± 1 ^c,d % | 32 ± 2 ^c % | 29 ± 3 ^c % |  |  |  |  | 
8 | Cc1c(C)c2c(c(C)c1O)CC[C@@](C)(CCC[C@H](C)CCC[C@H](C)CCCC(C)C)O2 [α–Tocopherol, α-Tocopherol] | attenuation of 3,4,5-TCNB cytotoxicity | attenuation of 2,3,4-TCNB cytotoxicity | 11± 1% | 13 ± 1% | 14 ± 1% | 12 ± 2 ^d % | 14 ± 3 ^d % | 25 ± 2 ^c % |  |  | not reduced | attenuation of 2,4,5-TCNB cytotoxicity | 
9 | NNC(=O)c1ccncc1 [Isoniazid] | at least some attenuation | reduced | 11 ± 1% | 10 ± 1% |  | 19 ± 1 ^c,d % | 34 ± 1 ^c,d % | 28 ± 2 ^c % |  |  |  |  | 
10 | O=[N+]([O-])c1c(Cl)cc(Cl)cc1Cl [2,4,6-TCNB] |  |  |  |  |  |  |  |  |  | cytotoxicity was observed at 30 and 60 min (0.5 and 1.0 mM) but not at 15 min with either concentration |  |  | 500
11 | O=C1O[C@H]([C@@H](O)CO)C(O)=C1O [Ascorbate] | attenuation of 3,4,5-TCNB cytotoxicity | attenuation of 2,3,4-TCNB cytotoxicity | 12 ± 1% | 12 ± 1% |  | 14 ± 1 ^d % | 16 ± 2 ^d % | 17 ± 2 ^c,d % |  |  | attenuation of 2,4,6-TCNB cytotoxicity | attenuation of 2,4,5-TCNB cytotoxicity | 
12 | Cn1cc[nH]c1=S [Methimazole] | reduced | reduced | 9 ± 1% | 14 ± 2% | 17 ± 1% | 11 ± 1 ^d % | 23 ± 2 ^c % | 31 ± 2 ^c % |  |  | reduced |  | 
13 | CCN(CC)C(=S)S [diethyldithiocarbamate, Diethyldithiocarbamate] | at least some attenuation |  |  |  |  |  |  |  |  |  |  |  | 
14 | CC(=O)N[C@@H](CS)C(=O)O [NAC, N-acetyl-L-cysteine] | attenuation of 3,4,5-TCNB cytotoxicity | attenuation of 2,3,4-TCNB cytotoxicity | 13± 1% | 15 ± 1% | 13 ± 1% | 16 ± 1 ^c,d % | 17 ± 1 ^d % | 23 ± 2 ^c % |  |  | not reduced | attenuation of 2,4,5-TCNB cytotoxicity | 
15 | N[C@@H](CCC(=O)N[C@@H](CS)C(=O)NCC(=O)O)C(=O)O [Glutathione] | attenuation of 3,4,5-TCNB cytotoxicity | attenuation of 2,3,4-TCNB cytotoxicity | 13 ± 1% | 15 ± 1% |  | 14 ± 1 ^d % | 17 ± 2 ^d % | 20 ± 1 ^c,d % |  |  | attenuation of 2,4,6-TCNB cytotoxicity | attenuation of 2,4,5-TCNB cytotoxicity | 
16 | COc1ccc2c(c1)c(CC(=O)O)c(C)n2C(=O)c1ccc(Cl)cc1 [Indomethacin] | reduced | reduced | 13 ± 1% | 16 ± 2% | 16 ± 1 ^c % | 16 ± 2 ^c,d % | 21 ± 2 ^c % | 21 ± 1 ^c,d % |  |  | reduced |  | 
17 | CCCCOCCOCCOCc1cc2c(cc1CCC)OCO2 [PiBx, Piperonyl butoxide] | reduced | reduced | 10 ± 1% | 11 ± 2% | 13 ± 1% | 12 ± 1 ^c,d % | 24 ± 3 ^c % | 22 ± 1 ^c % |  |  |  |  | 

Reference: article PMC5485989, “Role of Free Radicals and Biotransformation in Trichloronitrobenzene-Induced Nephrotoxicity In Vitro” (International Journal of Molecular Sciences, 2017)
